Where two headings read alike, the source gives them in different places.
What was measured:
[1] = target: T1, ROCK2 (Homo sapiens, UniProt O75116); assay: Rho kinase inhibition assay (IMAP fluorescence polarization), ROCK2; assay type: biochemical; conditions: 10 μM ATP, 60 min at room temperature
T1 construct: purchased Upstate/Chemicon 14-451
Procedure: (Molecular Devices product number R7184) was pre-incubated with a test compound for 5 minutes in buffer containing 10 mM Tris-HCl pH 7.2, 10 mM MgCl2, and 0.1% BSA. Following the pre-incubation, 10 μM ATP was added to initiate the reaction. After 60 minutes at room temperature, Molecular Devices IMAP™ binding solution was added to bind phosphorylated substrate. After 30 minutes of incubation in the presence of the IMAP™ beads, the fluorescence polarization was read and the ratio was reported as mP.
See Tian et al., Arch. Ophthalmol. […] Ophthalmol. Vis. […] Ophthalmol. […] Cytoskel. […] Ophthalmol. Vis. […] Ophthalmol. Vis.

[2] = Ocular surface and aqueous humor bioavailability; assay type: in vivo, New Zealand White rabbits; conditions: New Zealand White, rabbit, topical, 30 μl of 1 mM (0.04% w/v) per eye, Compound 14 dosed 1 mM, 1 × 30 uL, 4 eyes
Procedure: Dose Formulation and Administration. Compounds 14 (prodrug) and 49 (base compound) were formulated at 0.04% w/v (the equivalent millimolar concentration is 1 mM) in 10 mM phosphate, 0.8% polysorbate 80, 0.85% NaCl, 0.01% BAC, 0.1% EDTA at pH 7.3. Each compound was administered as a 30 μl drop to both eyes of each animal within a dosing group and the ocular and systemic exposure was examined as described in Example 49.
Study sampling. 40 μL of saline was applied to the eyes at 0.083, 1, 2, and 4 hours after administration of each compound and the lavage fluids were collected as samples. Aqueous humor and ocular surface samples were obtained from 2 animals (4 eyes) per dosing group at 0.083, 1, 2, and 4 hours post dosing, by the methods described in Example 49. Ocular surface relates to the surface of the cornea and conjunctiva. Ocular surface residence time is the average time that a compound resides on the ocular surface.

[3] = Ocular surface and aqueous humor bioavailability; assay type: in vivo, New Zealand White rabbits; conditions: New Zealand White, rabbit, topical, 30 μl of 1 mM (0.04% w/v) per eye, Compound 14 dosed 1 mM, 1 × 30 uL, 4 eyes, time 0.83 h
[4] = target: T2, ROCK1 (Homo sapiens, UniProt Q13464); assay: Rho kinase inhibition assay (IMAP fluorescence polarization), ROCK1; assay type: biochemical; conditions: 10 μM ATP, 60 min at room temperature; read-out: ROCK1 IC50
T2 construct: purchased Upstate/Chemicon 14-601
T2 sequence (Q13464 whole entry): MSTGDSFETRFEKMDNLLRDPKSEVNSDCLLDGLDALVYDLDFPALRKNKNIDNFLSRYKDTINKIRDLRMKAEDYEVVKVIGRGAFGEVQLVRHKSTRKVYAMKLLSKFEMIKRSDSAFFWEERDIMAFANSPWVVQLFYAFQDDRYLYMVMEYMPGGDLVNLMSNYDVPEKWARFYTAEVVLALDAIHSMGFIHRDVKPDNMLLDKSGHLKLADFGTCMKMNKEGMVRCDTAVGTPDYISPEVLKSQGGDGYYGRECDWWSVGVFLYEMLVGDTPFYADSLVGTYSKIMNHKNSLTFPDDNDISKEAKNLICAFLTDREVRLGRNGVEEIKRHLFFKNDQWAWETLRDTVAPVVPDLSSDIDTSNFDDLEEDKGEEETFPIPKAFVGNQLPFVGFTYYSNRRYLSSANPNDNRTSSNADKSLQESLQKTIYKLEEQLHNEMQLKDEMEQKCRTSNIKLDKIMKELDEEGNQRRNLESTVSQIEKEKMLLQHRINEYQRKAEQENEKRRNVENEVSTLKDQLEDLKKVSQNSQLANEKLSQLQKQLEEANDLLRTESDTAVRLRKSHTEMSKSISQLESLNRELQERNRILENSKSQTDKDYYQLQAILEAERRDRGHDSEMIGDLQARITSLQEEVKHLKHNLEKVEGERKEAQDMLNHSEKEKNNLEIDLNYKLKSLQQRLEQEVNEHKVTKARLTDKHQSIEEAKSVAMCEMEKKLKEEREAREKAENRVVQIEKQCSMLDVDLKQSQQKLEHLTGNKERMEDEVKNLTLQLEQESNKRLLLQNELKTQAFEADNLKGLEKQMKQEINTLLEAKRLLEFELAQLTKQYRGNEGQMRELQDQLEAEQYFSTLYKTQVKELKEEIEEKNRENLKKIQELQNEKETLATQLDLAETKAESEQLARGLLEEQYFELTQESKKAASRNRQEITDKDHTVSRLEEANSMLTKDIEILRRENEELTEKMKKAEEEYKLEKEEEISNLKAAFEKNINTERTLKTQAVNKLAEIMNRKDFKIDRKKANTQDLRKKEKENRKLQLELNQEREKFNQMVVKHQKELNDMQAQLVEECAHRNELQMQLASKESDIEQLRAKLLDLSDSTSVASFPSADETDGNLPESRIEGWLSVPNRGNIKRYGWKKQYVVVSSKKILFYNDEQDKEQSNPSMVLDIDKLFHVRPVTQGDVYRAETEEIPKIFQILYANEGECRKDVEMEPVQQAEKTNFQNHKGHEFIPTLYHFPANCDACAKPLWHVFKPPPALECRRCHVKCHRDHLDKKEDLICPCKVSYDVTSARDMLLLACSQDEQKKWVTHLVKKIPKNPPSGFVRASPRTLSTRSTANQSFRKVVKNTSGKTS
Procedure: Following the pre-incubation, 10 μM ATP was added to initiate the reaction. After 60 minutes at room temperature, Molecular Devices IMAP™ binding solution was added to bind phosphorylated substrate. After 30 minutes of incubation in the presence of the IMAP™ beads, the fluorescence polarization was read and the ratio was reported as mP.

[5] = Ocular comfort, composite behaviour score after ocular instillation; assay type: in vivo, rabbit; conditions: 4 mM, two drops to right eye, evaluated for 15 minutes; FIGS. 1 and 2
Procedure: The desired compound at a concentration of 4 mM in a formulation of 10 mM phosphate, 1% polysorbate 80, 0.85% NaCl, 0.02% BAC, 0.2% EDTA pH 7.0 was administered as two 30 µl drops to the right eye of each rabbit within a dosing group. The rabbits were evaluated for 15 minutes after ocular instillation and their changes in behavior were recorded. […] The higher the score, the more discomfort an animal senses. A mean ±SE was generated for each group and depicted in FIGS. 1 and 2.

[6] = aqueous humor, read-out: Aqueous Humor concentration of [14], Mean
[7] = ocular surface (saline lavage fluid), read-out: Ocular Surface concentration of [14], Mean

T1 sequence (O75116 whole entry): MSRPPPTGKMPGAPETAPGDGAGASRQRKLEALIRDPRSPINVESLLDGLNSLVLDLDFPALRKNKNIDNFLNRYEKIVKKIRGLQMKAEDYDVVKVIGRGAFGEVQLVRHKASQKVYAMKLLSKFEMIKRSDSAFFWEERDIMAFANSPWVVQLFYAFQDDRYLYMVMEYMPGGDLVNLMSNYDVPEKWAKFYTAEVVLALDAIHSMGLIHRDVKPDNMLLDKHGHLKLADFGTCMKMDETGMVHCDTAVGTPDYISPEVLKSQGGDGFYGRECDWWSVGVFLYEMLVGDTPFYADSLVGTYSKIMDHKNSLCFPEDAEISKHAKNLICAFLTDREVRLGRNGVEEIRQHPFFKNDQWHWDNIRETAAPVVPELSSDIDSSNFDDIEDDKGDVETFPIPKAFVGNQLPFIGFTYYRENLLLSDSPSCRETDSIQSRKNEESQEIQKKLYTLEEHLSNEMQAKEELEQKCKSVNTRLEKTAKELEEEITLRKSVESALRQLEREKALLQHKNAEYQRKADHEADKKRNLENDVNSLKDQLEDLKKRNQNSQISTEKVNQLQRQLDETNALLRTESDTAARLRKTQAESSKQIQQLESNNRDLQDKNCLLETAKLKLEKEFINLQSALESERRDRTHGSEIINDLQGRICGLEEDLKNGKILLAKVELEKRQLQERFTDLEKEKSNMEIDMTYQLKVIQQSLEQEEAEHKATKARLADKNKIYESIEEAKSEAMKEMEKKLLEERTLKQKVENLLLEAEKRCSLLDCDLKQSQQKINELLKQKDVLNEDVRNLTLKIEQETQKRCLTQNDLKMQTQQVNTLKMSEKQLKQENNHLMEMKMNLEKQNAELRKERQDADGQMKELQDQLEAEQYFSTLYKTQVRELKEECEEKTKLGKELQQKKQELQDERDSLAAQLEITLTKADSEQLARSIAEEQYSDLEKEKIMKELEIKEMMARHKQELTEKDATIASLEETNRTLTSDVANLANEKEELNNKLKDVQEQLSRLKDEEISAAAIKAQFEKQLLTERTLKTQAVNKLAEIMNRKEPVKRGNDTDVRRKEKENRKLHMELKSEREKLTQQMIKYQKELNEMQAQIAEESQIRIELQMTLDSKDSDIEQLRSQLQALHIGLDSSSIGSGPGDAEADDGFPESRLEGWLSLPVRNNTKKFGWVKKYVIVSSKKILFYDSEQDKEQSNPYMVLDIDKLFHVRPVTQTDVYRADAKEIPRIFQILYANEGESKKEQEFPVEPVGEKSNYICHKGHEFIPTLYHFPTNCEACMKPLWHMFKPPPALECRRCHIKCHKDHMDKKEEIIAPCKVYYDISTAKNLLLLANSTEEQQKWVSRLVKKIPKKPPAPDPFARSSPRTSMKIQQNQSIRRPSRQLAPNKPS

IC50 [1]: 717 nM | concentration at 1 h [2, 6]: 0 µM | concentration at 2 h [2, 6]: 0 µM | concentration at 4 h [2, 6]: 0 nM | concentration at 1 h [2, 7]: 3.08 µM | concentration at 2 h [2, 7]: 0.245 µM | concentration at 4 h [2, 7]: 0 nM | concentration at […] [3, 6]: 0 µM | concentration at […] [3, 7]: 24.3 µM | IC50 [4]: 2460 nM
SMILES: Cc1ccc(CN2CC[C@@H](Nc3cccc4cnccc34)C2)cc1OCCOC(=O)c1ccccc1 [Compound 14, 2-(5-(((R)-3-isoquinolin-5-ylamino)pyrrolidin-1-yl)methyl)-2-methylphenoxy)ethyl benzoate]
Ocular discomfort (composite score) versus parent compound [5]: reduced level of discomfort compared to the parent compound
